Test [1] has as its system HeLa: human cervical adenocarcinoma cells. Put plainly: MTT cytotoxicity assay on HeLa cells. Particulars: for IC50: Homo sapiens, HeLa, MTT, 72 h incubation, n = 3, NA: noncytotoxic at the concentrations tested; for SI (HeLa): IC50 MRC-5/IC50 HeLa. The format is cell-based. The procedure:
(§1) Cytotoxicity was determined using the MTT colorimetric assay, and half-maximal inhibitory concentrations (IC50, μM) were obtained for all cell lines (Table ). The selectivity index (SI) was calculated as the ratio of IC50 MRC-5/IC50 cancer cell line. Doxorubicin was employed as a positive control due to its broad-spectrum clinical use, either alone or in combination, against hepatocellular, ovarian, cervical, and bladder cancers. −
(§2) In vitro biological assays were performed by using five human cell lines for cytotoxicity evaluation. HepG2 cells (ATCC HB-8065), derived from a human hepatocellular carcinoma of the liver (person), were cultured in Dulbecco’s modified Eagle medium (DMEM) supplemented with 5% fetal bovine serum (FBS), penicillin/streptomycin (100 IU/mL), and amphotericin B (5 μg/mL), in a humidified incubator with 5% CO2 at 37 °C. These cells were plated at a concentration of 2.0 × 10^4 cells/well in 96-well microplates. MRC-5 cells (ATCC CCL-171), derived from human lung fibroblasts of a […] fetus, were cultured under the same conditions and plated at 1.0 × 10^4 cells/well. T24 cells (ATCC HTB-4), established from a transitional cell carcinoma of the bladder (person), were also cultured under identical conditions and plated at a density of 1.0 × 10^4 cells/well. TOV-21G cells (ATCC CRL-11730), derived from a primary malignant ovarian adenocarcinoma (person), were maintained in DMEM with the same supplementation and environmental conditions and plated at 5.0 × 10^4 cells/well. […]
(§3) HeLa, HepG2, MRC-5, T24, and TOV-21G cells were suspended in a culture medium supplemented with 5% fetal bovine serum (FBS) and seeded into 96-well microplates. The plates were incubated under a humidified atmosphere containing 5% CO2 at 37 °C for 24 h, allowing for adherence and monolayer formation. , Eight serial dilutions of the test samples, previously solubilized in dimethyl sulfoxide (DMSO), were prepared in DMEM supplemented with 1% FBS, covering a concentration range from […], and the results were converted to […]. The volume of DMSO in each well was limited to a final concentration not exceeding 2%. Following monolayer formation, the culture medium was aspirated and replaced with 100 μL of the diluted test samples and 100 μL of DMEM containing 1% FBS. The plates were then incubated under the same atmospheric and temperature conditions.
(§4) Two hours prior to end point reading, 20 μL of MTT [3-(4,5-dimethylthiazol-2-yl)-2,5-diphenyltetrazolium bromide] solution (1.0 mg/mL in sterile phosphate-buffered saline, Sigma-Aldrich) was added to each well. The incubation period following sample addition varied according to the cell line: 24 h for MRC-5, 48 h for T24, and 72 h for HeLa, HepG2, and TOV-21G. After the appropriate incubation, absorbance was measured by using a VICTOR X3 microplate reader (PerkinElmer), and data were processed with WorkOut 2.5 software at a wavelength of 490 nm. Formazan formation, resulting from the MTT reduction by metabolically active cells, was used as an indirect measure of cell viability. The percentage of cytotoxicity was calculated using the equation % cytotoxicity = [(A – B)/A] × 100, where A is the optical density (OD4 9 0) of untreated control cells and B is the OD4 9 0 of treated cells.
(§5) Cytotoxicity was expressed as the 50% cytotoxic concentration (CC5 0), representing the concentration of sample required to reduce cell viability by 50% relative to that of the untreated control.

The subject of test [2] is T24: human urinary bladder carcinoma cells. Put plainly: MTT cytotoxicity assay on T24 cells. The test is classed as cell-based. The note with it: for IC50: Homo sapiens, T-24, MTT, 48 h incubation, n = 3, NA: noncytotoxic at the concentrations tested; for SI (T24): IC50 MRC-5/IC50 T24. The procedure:
as §1, §2, §3, §4, §5
In general terms: Formazan colour is commonly taken as a measure of viable cells.

In test [3] the test system is TOV-21G: human ovarian adenocarcinoma cells. As to the kind of experiment: MTT cytotoxicity assay on TOV-21G cells. The test is classed as cell-based. The note with it: for IC50: Homo sapiens, TOV21G, MTT, 72 h incubation, n = 3, NA: noncytotoxic at the concentrations tested; for SI (TOV-21G): IC50 MRC-5/IC50 TOV-21G. The procedure:
as §1, §2, §3, §4, §5

For test [4], the system named is MRC-5: human lung fibroblast cells. As to the kind of experiment: MTT cytotoxicity assay on MRC-5 cells. The note with it: MRC5, 24 h incubation, n = 3, ± standard deviation. The test is classed as cell-based. The protocol:
as §1, §2, §3, §4, §5

For test [5], the system named is HepG2: human liver hepatocellular carcinoma cells. Put plainly: MTT cytotoxicity assay on HepG2 cells. The test is classed as cell-based. Particulars: for IC50: Homo sapiens, HepG2, MTT, 72 h incubation, n = 3, NA: noncytotoxic at the concentrations tested; for SI (HepG2): IC50 MRC-5/IC50 HepG2. The procedure:
as §1, §2, §3, §4, §5

The test system of test [6] is human hepatocellular carcinoma (HCC) cells. On the set-up: method as in Tsai and colleagues. Particulars: subtoxic concentrations (5–20 μM); ref Tsai and colleagues; cited from earlier work.

The structures appear in SMILES notation.

As for `CCCc1cc(/C=C/C(=O)c2ccc(C)cc2)c(OC(C)=O)c(OC)c1` [compound 2, (E)-2-Methoxy-6-(3-oxo-3-(p-toluyl)-prop-1-en-1-yl)-4-propylphenyl Acetate], in test [1], the IC50 came out at 3.6 ± 1.3 µM and the “SI (HeLa)” value came out at 4.7. In addition, in test [2], the IC50 amounted to 59.5 ± 1.5 µM and the “SI (T24)” value is recorded as 0.2. In addition, in test [3], the IC50 turned out to be 1.2 ± 1.1 µM and the “SI (TOV-21G)” value is on record as 13.3. The “activity against TOV-21G relative to hit 1” value in test [3] (ratio of IC50 values, 1 vs 2) was “over six times more active”. In addition, the IC50 in test [4] worked out at 16.1 ± 1.5 µM. In test [5], the IC50 turned out to be 4.2 ± 1.2 µM and the “SI (HepG2)” value is 3.8.
Turning to `CCCc1cc(/C=C/C(=O)c2ccc(C)cc2)c(OCc2ccccc2)c(OC)c1` [compound 4, (E)-3-(2-(Benzyloxy)-3-methoxy-5-propylphenyl)-1-(p-toluyl)-prop-2-en-1-one], the IC50 in test [4] turned out to be 242.4 ± 2.4 µM. For the same molecule, in test [5], the IC50 amounted to 16.9 ± 1.3 µM and the “SI (HepG2)” value was 14.3.
With `COc1cc([N+](=O)[O-])cc(/C=C/C(=O)c2ccc(C)cc2)c1O` [compound 7, (E)-3-(2-Hydroxy-3-methoxy-5-nitrophenyl)-1-(p-tolyl)-prop-2-en-1-one], in test [1], the 50% inhibitory concentration (IC50) amounted to 26.6 ± 1.8 µM and the “SI (HeLa)” value amounted to 1.0. Besides, in test [2], the IC50 was found to be 104 ± 1.9 µM and the “SI (T24)” value is recorded as 0.2. Also, in test [3], the IC50 is 23.8 ± 2.8 µM and the “SI (TOV-21G)” value is 1.1. Moreover, in test [4], the IC50 stood at 28.1 ± 1.3 µM. For the same molecule, in test [5], the IC50 is 16.6 ± 1.5 µM and the “SI (HepG2)” value amounted to 1.6.
On to `COc1cc(N)cc(/C=C/C(=O)c2ccc(C)cc2)c1O` [compound 8, (E)-3-(5-Amino-2-hydroxy-3-methoxyphenyl)-1-(p-tolyl)-prop-2-en-1-one], for which, in test [1], the IC50 was determined as 11.5 ± 1.8 µM and the “SI (HeLa)” value is 3.5. In addition, in test [2], the IC50 turned out to be 158.6 ± 1.4 µM and the “SI (T24)” value was 0.2. Also, in test [3], the 50% inhibitory concentration (IC50) stood at 53.1 ± 2.6 µM and the “SI (TOV-21G)” value was determined as 0.7. For the same molecule, the IC50 in test [4] stood at 40.9 ± 2 µM.
Consider `CCCc1cc(/C=C/C(=O)c2ccc(O)cc2)c(O)c(OC)c1` [compound 10, (E)-3-(2-Hydroxy-3-methoxy-5-propylphenyl)-1-(4-hydroxyphenyl)-prop-2-en-1-one], for which, in test [1], the IC50 is 17.9 ± 2 µM and the “SI (HeLa)” value came to 0.2. Moreover, in test [2], the IC50 turned out to be 34.9 ± 1.4 µM and the “SI (T24)” value was 0.1. Further, in test [3], the half-inhibitory concentration (IC50) is 7.2 ± 1.2 µM and the “SI (TOV-21G)” value was 0.7. Also, the IC50 in test [4] was determined as 5 ± 1.3 µM. In test [5], the IC50 worked out at 18.9 ± 1.6 µM and the “SI (HepG2)” value was determined as 0.2.
Regarding `CCCc1cc(/C=C/C(=O)c2ccccc2)c(O)c(OC)c1` [compound 11, (E)-3-(2-Hydroxy-3-methoxy-5-propylphenyl)-1-phenylprop-2-en-1-one], in test [1], the IC50 amounted to 2.1 ± 1.1 µM and the “SI (HeLa)” value stood at 5.2. In addition, in test [2], the IC50 is 9.2 ± 1.2 µM and the “SI (T24)” value is recorded as 1.2. Besides, in test [3], the IC50 was determined as 11.9 ± 1.5 µM and the “SI (TOV-21G)” value came to 0.9. Besides, in test [4], the IC50 was found to be 11 ± 1.2 µM. For the same molecule, in test [5], the IC50 worked out at 4.6 ± 1.2 µM and the “SI (HepG2)” value is recorded as 2.3.
Take `CCCc1cc(/C=C/C(=O)c2ccc(C(=O)/C=C/c3cc(CCC)cc(OC)c3O)cc2)c(O)c(OC)c1` [compound 12, (2E,2′E)-1,1′-(1,4-Phenylene)-bis(3-(2-hydroxy-3-methoxy-5-propylphenyl)-prop-2-en-1-one)]: in test [1], the IC50 came to 20.4 ± 1.5 µM and the “SI (HeLa)” value is given as 1.7. In test [2], the IC50 is 10.4 ± 1.7 µM and the “SI (T24)” value is reported as 3.3. Also, in test [3], the IC50 was found to be 33.7 ± 2.4 µM and the “SI (TOV-21G)” value is reported as 1.0. The half-inhibitory concentration (IC50) in test [4] is 35 ± 1.5 µM.
On to `CCCc1cc(OC)c(O)c(C(=O)/C=C/c2ccccc2)c1` [compound 15, (E)-1-(2-Hydroxy-3-methoxy-5-propylphenyl)-3-phenylprop-2-en-1-one], for which the IC50 in test [1] turned out to be 13.7 ± 1.5 µM; in test [2] it was 18.4 ± 1.9 µM; in test [3], 5.4 ± 1.2 µM; in test [4], 18.4 ± 1.9 µM; in test [5], 16.1 ± 1.2 µM. Moreover, the “SI (HeLa)” value in test [1] was determined as 1.3. Also, the “SI (T24)” value in test [2] was determined as 1. For the same molecule, the “SI (TOV-21G)” value in test [3] stood at 3.3. Besides, the “SI (HepG2)” value in test [5] amounted to 1.1.
In the case of `CCCc1cc(OC)c(O)c(C(=O)/C=C/c2ccc(C)cc2)c1` [compound 16, (E)-1-(2-Hydroxy-3-methoxy-5-propylphenyl)-3-(p-tolyl)-prop-2-en-1-one], the IC50 was 12.8 ± 1.3 µM in test [1]; 17.1 ± 2.1 µM in test [2]; 10.9 ± 1.5 µM in test [3]; 7.7 ± 1.5 µM in test [4]; 6.6 ± 1.4 µM in test [5]. For the same molecule, the “SI (HeLa)” value in test [1] amounted to 0.6. Moreover, the “SI (T24)” value in test [2] worked out at 0.4. In test [3], the “SI (TOV-21G)” value worked out at 0.7. For the same molecule, the “SI (HepG2)” value in test [5] is listed as 1.1.
Turning to `CCCc1cc(OC)c(O)c(C(=O)/C=C/c2ccc(O)cc2)c1` [compound 17, (E)-1-(2-Hydroxy-3-methoxy-5-propylphenyl)-3-(4-hydroxyphenyl)-prop-2-en-1-one], in test [1], the IC50 turned out to be 114 ± 2.1 µM and the “SI (HeLa)” value was 0.1. In test [2], the IC50 was 36.4 ± 1.5 µM and the “SI (T24)” value was determined as 0.3. Besides, in test [3], the IC50 is 39 ± 1.5 µM and the “SI (TOV-21G)” value was 0.3. In addition, the IC50 in test [4] worked out at 12.7 ± 1.4 µM. In addition, in test [5], the IC50 turned out to be 19.4 ± 1.4 µM and the “SI (HepG2)” value was 0.6.
Turning to `CCCc1cc(OC)c(O)c(C(=O)/C=C/c2ccc(F)cc2)c1` [compound 18, (E)-3-(4-Fluorophenyl)-1-(2-hydroxy-3-methoxy-5-propylphenyl)-prop-2-en-1-one], in test [1], the half-maximal inhibitory concentration (IC50) amounted to 4.1 ± 1.3 µM and the “SI (HeLa)” value was determined as 2.8. For the same molecule, in test [2], the IC50 stood at 15.4 ± 1.5 µM and the “SI (T24)” value stood at 0.7. Also, in test [3], the IC50 is 4.8 ± 1.4 µM and the “SI (TOV-21G)” value is reported as 2.3. Also, in test [4], the IC50 amounted to 11.5 ± 1.2 µM. Also, in test [5], the 50% inhibitory concentration (IC50) came out at 8.3 ± 1.2 µM and the “SI (HepG2)” value was 1.3.
`COc1cccc2c1C(=O)c1c(O)c3c(c(O)c1C2=O)C[C@@](O)(C(=O)CO)C[C@@H]3O[C@H]1C[C@H](N)[C@H](O)[C@H](C)O1` [doxorubicin, reference compound]: the IC50 in test [1] was determined as 2.9 ± 1.1 µM; in test [2], 4.4 ± 1.3 µM; in test [3] it was 0.5 µM; in test [4], 0.6 ± 1.2 µM; in test [5] it was 0.06 µM. Also, the “SI (HeLa)” value in test [1] was 0.2. Besides, the “SI (T24)” value in test [2] is recorded as 0.1. In addition, the “SI (TOV-21G)” value in test [3] was determined as 1.3.
On to `C=CC(C)(C)c1cc(/C=C/C(=O)c2ccc(O)cc2)c(OC)cc1O` [licochalcone A], for which the “migration and invasion of human hepatocellular carcinoma (HCC) cells” value in test [6] is “effectively inhibited migration and invasion”.

The IC50 is the midpoint of a concentration-inhibition curve.

The values above are taken from PMC12713470, “Design and Synthesis of Novel Chalcone Derivatives Targeting Bladder and Liver Cancer: Cytotoxicity Evaluation and Preliminary Mechanistic Studies” (ACS Omega, 2025).
